Values of other authors, collected in patent US20180289421A1, “SYSTEMS AND METHODS FOR TREATING NAIL FUNGUS” (Terimber Corporation, priority 2017, published 2018).

Legend:
[1] = systemic antifungal therapy
onychomycosis = settings: oral, 12-week course

Row | SMILES | cardiac toxicity [1] | maximal clinical response rate (onychomycosis) | mycologic cure rate (onychomycosis) | liver toxicity [1]
1 | CCC(C)n1ncn(-c2ccc(N3CCN(c4ccc(OCC5COC(Cn6cncn6)(c6ccc(Cl)cc6Cl)O5)cc4)CC3)cc2)c1=O (stereo not shown) [Itraconazole] | may induce cardiac toxicity | – | – | –
2 | CN(C/C=C/C#CC(C)(C)C)Cc1cccc2ccccc12 [terbinafine, [(2E)-6,6-dimethylhept-2-en-4-yn-1-yl](methyl)(naphthalen-1-ylmethyl)amine] | – | 60%-70% | 71%-82% | can elevate liver enzymes and has progressed to fulminant liver failure
